From patent US20240309005A1 (priority 2021, published 2024)
Converted amounts (≈) assume the structure as drawn.

What was measured:
CYP1A2 = CYP1A2 (Homo sapiens (Human), UniProt P05177); assay: in vitro; conditions: microsomes
CYP2B6 = CYP2B6 (Homo sapiens (Human), UniProt P20813); assay: in vitro; conditions: microsomes
CYP2D6 = CYP2D6 (Homo sapiens (Human), UniProt P10635); assay: in vitro; conditions: microsomes
CYP2C9 = CYP2C9 (Homo sapiens (Human), UniProt P11712); assay: in vitro; conditions: microsomes
CYP2C9, sequence (P11712 whole entry): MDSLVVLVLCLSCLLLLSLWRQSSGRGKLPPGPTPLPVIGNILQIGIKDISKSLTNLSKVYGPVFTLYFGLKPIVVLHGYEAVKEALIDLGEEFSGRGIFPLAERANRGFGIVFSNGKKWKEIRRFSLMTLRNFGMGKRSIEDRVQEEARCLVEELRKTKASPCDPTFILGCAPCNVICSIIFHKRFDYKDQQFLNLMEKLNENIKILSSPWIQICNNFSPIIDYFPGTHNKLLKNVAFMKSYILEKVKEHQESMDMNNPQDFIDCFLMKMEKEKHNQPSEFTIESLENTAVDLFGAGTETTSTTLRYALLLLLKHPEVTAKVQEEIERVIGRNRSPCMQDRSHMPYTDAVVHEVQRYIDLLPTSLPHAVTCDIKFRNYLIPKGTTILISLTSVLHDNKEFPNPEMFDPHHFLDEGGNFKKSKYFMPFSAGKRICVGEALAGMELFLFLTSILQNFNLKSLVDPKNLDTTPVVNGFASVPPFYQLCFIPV

physchem = conditions: 25 °C, kinetic from dmso stock
CYP3A4 = assay: in vitro; conditions: human, microsomes
in vivo [1] = conditions: male, CD1, mouse; for Cmax / bioavailability: po, 30 mg/kg
[2] = male, SD, in vivo
in vivo [3] = conditions: male, SD, rat; for bioavailability / Cmax: po, 30 mg/kg

CYP2B6, sequence (P20813 whole entry): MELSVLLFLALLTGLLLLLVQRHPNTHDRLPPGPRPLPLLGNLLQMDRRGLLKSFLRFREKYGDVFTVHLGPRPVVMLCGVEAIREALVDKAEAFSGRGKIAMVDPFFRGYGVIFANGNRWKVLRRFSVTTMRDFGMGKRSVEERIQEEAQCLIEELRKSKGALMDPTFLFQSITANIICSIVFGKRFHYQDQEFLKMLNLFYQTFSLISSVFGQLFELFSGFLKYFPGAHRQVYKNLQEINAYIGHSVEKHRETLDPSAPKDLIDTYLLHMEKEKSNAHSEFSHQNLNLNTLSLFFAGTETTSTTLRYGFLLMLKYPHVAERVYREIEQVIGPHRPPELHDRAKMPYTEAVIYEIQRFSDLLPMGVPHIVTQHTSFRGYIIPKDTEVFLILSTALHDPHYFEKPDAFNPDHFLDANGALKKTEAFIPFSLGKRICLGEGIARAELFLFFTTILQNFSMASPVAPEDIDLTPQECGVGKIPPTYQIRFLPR
CYP2D6, sequence (P10635 whole entry): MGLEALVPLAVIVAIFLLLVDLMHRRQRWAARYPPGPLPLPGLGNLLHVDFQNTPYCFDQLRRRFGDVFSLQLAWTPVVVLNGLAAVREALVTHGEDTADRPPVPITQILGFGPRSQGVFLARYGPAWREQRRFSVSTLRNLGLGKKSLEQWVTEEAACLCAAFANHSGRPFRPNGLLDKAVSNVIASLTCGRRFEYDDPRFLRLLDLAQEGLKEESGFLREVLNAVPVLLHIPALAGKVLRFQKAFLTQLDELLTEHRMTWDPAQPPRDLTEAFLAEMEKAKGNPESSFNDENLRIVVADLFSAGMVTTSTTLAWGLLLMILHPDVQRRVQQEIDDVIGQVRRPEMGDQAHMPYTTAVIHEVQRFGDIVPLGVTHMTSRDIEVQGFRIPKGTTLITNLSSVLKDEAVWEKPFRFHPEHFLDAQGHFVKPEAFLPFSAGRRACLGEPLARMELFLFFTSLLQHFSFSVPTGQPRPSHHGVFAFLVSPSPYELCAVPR
CYP1A2, sequence (P05177 whole entry): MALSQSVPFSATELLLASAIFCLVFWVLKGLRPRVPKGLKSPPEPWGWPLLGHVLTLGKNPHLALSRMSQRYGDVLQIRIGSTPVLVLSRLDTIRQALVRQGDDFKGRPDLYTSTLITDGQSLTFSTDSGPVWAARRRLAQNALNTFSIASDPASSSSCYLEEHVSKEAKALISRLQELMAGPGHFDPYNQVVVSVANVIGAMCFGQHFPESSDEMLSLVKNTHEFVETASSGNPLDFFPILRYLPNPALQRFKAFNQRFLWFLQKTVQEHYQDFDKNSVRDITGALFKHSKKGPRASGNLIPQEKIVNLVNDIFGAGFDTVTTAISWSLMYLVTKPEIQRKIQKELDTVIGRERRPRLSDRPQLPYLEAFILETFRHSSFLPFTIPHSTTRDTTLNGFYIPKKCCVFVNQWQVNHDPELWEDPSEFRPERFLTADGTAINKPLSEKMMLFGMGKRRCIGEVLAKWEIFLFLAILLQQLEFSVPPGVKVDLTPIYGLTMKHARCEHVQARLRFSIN

SMILES	inhibition at 20 min, 10 µM (CYP1A2)	inhibition at 20 min, 10 µM (CYP2B6)	inhibition at 20 min, 10 µM (CYP2D6)	inhibition at 20 min, 10 µM (CYP2C9)	solubility at 2 h (physchem; pH 5, fessif)	solubility at 2 h (physchem; pH 7.4, aqueous buffer)	inhibition at 5 min, 10 µM (CYP3A4)	inhibition at 10 min, 10 µM (CYP3A4)	Cmax (in vivo [1])	bioavailability (in vivo [1])	hERG/IC50 (hERG / SGK1 (whole cell))	half-life (in vivo [1])	pK Data in Rat: F [2]	half-life (in vivo [3])	bioavailability (in vivo [3])	Cmax (in vivo [3]; Cmax (ng/ml))	Cmax (in vivo [3]; pK Data in Rat: Cmax)
Cc1n[nH]c2nc(-c3ccc(NS(=O)(=O)N4CCCC4)cc3)nc(OC3CCN(C(C)C)CC3)c12 [Compound 2, N-(4-(4-((1-isopropylpiperidin-4-yl)oxy)-3-methyl-1H-pyrazolo[3,4-d]pyrimidin-6-yl)phenyl)pyrrolidine-1-sulfonamide]	5.9%	-5%	7.3%	13%	291 µM (≈ 145 µg/mL)	59.1 µM (≈ 29.5 µg/mL)	7%	13%	–	–	–	–	–	–	–	–	–
COc1ccncc1S(=O)(=O)Nc1ccc(-c2nc(NCCN(C)C)c3c(C)n[nH]c3n2)cc1 [Compound 19, N-(4-(4-(2-(dimethylamino)ethylamino)-3-methyl-1H-pyrazolo[3,4-d]pyrimidin-6-yl)phenyl)-4-methoxypyridine-3-sulfonamide]	–	–	–	–	297 µM (≈ 143 µg/mL)	37 µM (≈ 17.9 µg/mL)	–	–	9.3 ng/mL	0.31%	1.5	–	–	–	–	–	–
Cc1n[nH]c2nc(-c3ccc(NS(=O)(=O)c4cc(Cl)ccc4F)cc3)nc(NCCN(C)CCO)c12 [Compound 22, 5-chloro-2-fluoro-N-[4-[4-([2-[(2-hydroxyethyl)(methyl)amino]ethyl]amino)-3-methyl-1H-pyrazolo[3,4-d]pyrimidin-6-yl]phenyl]benzenesulfonamide]	–	–	–	–	289 µM (≈ 154 µg/mL)	8.37 µM (≈ 4.47 µg/mL)	–	–	37.9 ng/mL	2.5%	201	2.3 h	Cmax = 42 ng/mL F = 2.8%	5.14 h	2.79%	41.9 ng/mL	42 ng/mL
Cc1n[nH]c2nc(-c3ccc(NS(=O)(=O)c4cccnc4)cc3)nc(NCCN(C)C)c12 [Compound 23, N-[4-(4-[[2-(dimethylamino)ethyl]amino]-3-methyl-1H-pyrazolo[3,4-d]pyrimidin-6-yl)phenyl]pyridine-3-sulfonamide]	–	–	–	–	274 µM (≈ 124 µg/mL)	13.7 µM (≈ 6.2 µg/mL)	–	–	–	–	4.1	–	–	–	–	–	–
Cc1n[nH]c2nc(-c3ccc(NS(=O)(=O)c4ccccn4)cc3)nc(NCCN(C)C)c12 [Compound 24, N-[4-(4-[[2-(dimethylamino)ethyl]amino]-3-methyl-1H-pyrazolo[3,4-d]pyrimidin-6-yl)phenyl]pyridine-2-sulfonamide]	–	–	–	–	300 µM (≈ 136 µg/mL)	278 µM (≈ 126 µg/mL)	–	–	45.1 ng/mL	1.55%	20.7	2.3 h	–	–	–	–	–
COc1ccnc(S(=O)(=O)Nc2ccc(-c3nc(NCCN(C)C)c4c(C)n[nH]c4n3)cc2)c1 [Compound 27, N-(4-(4-((2-(dimethylamino)ethyl)amino)-3-methyl-1H-pyrazolo[3,4-d]pyrimidin-6-yl)phenyl)-4-methoxypyridine-2-sulfonamide]	–	–	–	–	256 µM (≈ 124 µg/mL)	36.5 µM (≈ 17.6 µg/mL)	–	–	40.3 ng/mL	–	341	2.7 h	–	–	–	–	–
Cc1n[nH]c2nc(-c3ccc(NS(=O)(=O)c4cc(Cl)ccc4F)c(F)c3)nc(OC3CCN(C(C)C)CC3)c12 [Compound 28]	–	–	–	–	293 µM (≈ 169 µg/mL)	1.7 µM (≈ 0.981 µg/mL)	–	–	4020 ng/mL	51%	–	3.4 h	Cmax = 4017 ng/mL F = 51%	–	–	–	4020 ng/mL
Cc1n[nH]c2nc(-c3ccc(NS(=O)(=O)c4cc(Cl)ccc4F)cc3)nc(O[C@@H]3CCNC[C@@H]3F)c12 [Compound 29, 5-chloro-2-fluoro-N-(4-(4-(((3S,4R)-3-fluoropiperidin-4-yl)oxy)-3-methyl-1H-pyrazolo[3,4-d]pyrimidin-6-yl)phenyl)benzenesulfonamide]	8.8%	26%	26%	75%	245 µM (≈ 131 µg/mL)	3 µM (≈ 1.6 µg/mL)	54%	77%	115 ng/mL	8%	2476	1.04 h	–	9.7 h	0.45%	16 ng/mL	–
Cc1n[nH]c2nc(-c3ccc(NS(=O)(=O)c4cc(Cl)ccc4F)cc3)nc(O[C@@H]3CCNCC3(F)F)c12 [Compound 44, (R)-5-chloro-N-(4-(4-((3,3-difluoropiperidin-4-yl)oxy)-3-methyl-1H-pyrazolo[3,4-d]pyrimidin-6-yl)phenyl)-2-fluorobenzenesulfonamide]	11%	39%	44%	92%	–	–	93%	91%	–	–	–	–	–	–	–	–	–
Cc1n[nH]c2nc(-c3ccc(NS(=O)(=O)c4cc(F)ccc4F)cc3)nc(NCCN(C)C)c12 [Compound 45, N-(4-(4-((2-(dimethylamino)ethyl)amino)-3-methyl-1H-pyrazolo[3,4-d]pyrimidin-6-yl)phenyl)-2,5-difluorobenzenesulfonamide]	–	–	–	–	277 µM (≈ 135 µg/mL)	7.98 µM (≈ 3.89 µg/mL)	–	–	–	–	–	–	Cmax = 131 ng/mL F = 4.7%	3.63 h	4.68%	131 ng/mL	131 ng/mL
Cc1n[nH]c2nc(-c3ccc(NS(=O)(=O)c4cc(C(F)(F)F)ccn4)cc3)nc(O[C@@H]3CCN(C)C[C@@H]3F)c12 [Compound 63, N-[4-(4-{[(3S,4R)-3-fluoro-1-methylpiperidin-4-yl]oxy}-3-methyl-1H-pyrazolo[3,4-d]pyrimidin-6-yl)phenyl]-4-(trifluoromethyl)pyridine-2-sulfonamide]	2.4%	12%	7.5%	65%	205 µM (≈ 116 µg/mL)	1.9 µM (≈ 1.07 µg/mL)	-24%	-2%	1120 ng/mL	–	–	12 h	–	–	–	–	–
Cc1n[nH]c2nc(-c3ccc(NS(=O)(=O)c4cc(Cl)ccc4F)c(F)c3)nc(NCCN(C)CCO)c12 [Compound 78, 5-chloro-2-fluoro-N-{2-fluoro-4-[4-({2-[(2-hydroxyethyl)(methyl)amino]ethyl}amino)-3-methyl-1H-pyrazolo[3,4-d]pyrimidin-6-yl]phenyl}benzenesulfonamide]	–	–	–	–	275 µM (≈ 152 µg/mL)	16 µM (≈ 8.83 µg/mL)	–	–	111 ng/mL	4.9%	–	2.5 h	Cmax = 69 ng/mL F = 4.9%	–	–	–	69 ng/mL
Cc1n[nH]c2nc(-c3ccc(NS(=O)(=O)c4cc(F)ccc4F)c(F)c3)nc(NCCN(C)C)c12 [Compound 84, N-[4-(4-[[2-(dimethylamino)ethyl]amino]-3-methyl-1H-pyrazolo[3,4-d]pyrimidin-6-yl)-2-fluorophenyl]-2,5-difluorobenzenesulfonamide]	-0.9%	1.2%	0%	2.2%	297 µM (≈ 150 µg/mL)	3.38 µM (≈ 1.71 µg/mL)	0.5%	3%	621 ng/mL	22%	177	2.3 h	Cmax = 2470 ng/mL F = 17.9%	3.15 h	17.9%	2470 ng/mL	2470 ng/mL
Cc1n[nH]c2nc(-c3ccc(NS(=O)(=O)c4cc(F)ccc4F)c(Cl)c3)nc(NCCN(C)C)c12 [Compound 85, N-(2-chloro-4-(4-((2-(dimethylamino)ethyl)amino)-3-methyl-1H-pyrazolo[3,4-d]pyrimidin-6-yl)phenyl)-2,5-difluorobenzenesulfonamide]	-0.7%	7.7%	1.8%	9.4%	315 µM (≈ 164 µg/mL)	4.5 µM (≈ 2.35 µg/mL)	19%	-2.9%	–	–	82	–	Cmax = 2747 ng/mL F = 92%	3.6 h	92%	2750 ng/mL	2750 ng/mL
Cc1n[nH]c2nc(-c3ccc(NS(=O)(=O)c4cc(Cl)ccc4F)c(Cl)c3)nc(NCCN(C)CCO)c12 [Compound 99, 5-chloro-N-{2-chloro-4-[4-({2-[(2-hydroxyethyl)(methyl)amino]ethyl}amino)-3-methyl-1H-pyrazolo[3,4-d]pyrimidin-6-yl]phenyl}-2-fluorobenzenesulfonamide]	–	–	–	–	–	–	–	–	–	–	91	–	Cmax = 141 ng/mL F = 5.6%	10 h	5.6%	141 ng/mL	141 ng/mL
Cc1nc2c([nH]1)c(=O)n(C)c(=O)n2Cc1ccco1 [Furafylline]	78%	–	–	–	–	–	–	–	–	–	–	–	–	–	–	–	–
